Source: patent US20230295131A1, “INHIBITORS OF RHO-ASSOCIATED COILED-COIL KINASE” (Angion Biomedica Corp., priority 2020, published 2023)

Legend:
ROCK1 = biological target: T1, ROCK1 (Homo sapiens, UniProt Q13464); experiment: ROCK1 kinase binding affinity, DiscoverX KINOMEscan KdELECT; conditions: 11-point 3-fold dilution
T1 construct: T7 phage fusion (kinase-tagged phage) or DNA tag for qPCR detection
Procedure: (§1) 1. ROCK1 and ROCK2 kinase assays: The ROCK1 and ROCK2 kinase binding affinities of compounds in this disclosure were determined by DiscoverX's KINOMEscan™ KdELECT technology (https://www.discoverx.com/kinomescan-elect-kinase-screening-and-profiling-services): Kinase-tagged T7 phage strains were prepared in an E. coli host derived from the BL21 strain. E. coli were grown to log-phase and infected with T7 phage and incubated with shaking at 32° C. until lysis. The lysates were centrifuged and filtered to remove cell debris. The remaining kinases were produced in HEK-293 cells and subsequently tagged with DNA for qPCR detection. […] The liganded beads were blocked with excess biotin and washed with blocking buffer (SeaBlock (Pierce), 1% BSA, 0.05% Tween 20, 1 mM DTT) to remove unbound ligand and to reduce nonspecific binding. […] Kds were determined using an 11-point 3-fold compound dilution series with three DMSO control points. […] The compounds were then diluted directly into the assays such that the final concentration of DMSO was 0.9%. All reactions performed in polypropylene 384-well plate. Each was a final volume of 0.02 ml. […] The kinase concentration in the eluates was measured by qPCR.

ROCK2 = biological target: T2, ROCK2 (Homo sapiens, UniProt O75116); experiment: ROCK2 kinase binding affinity, DiscoverX KINOMEscan KdELECT; conditions: for Kd: KINOMEscan KdELECT, 11-point 3-fold dilution, read-out: Kd (μM) ROCK2; for ROCK2 Selectivity: selectivity for ROCK2 over ROCK1 from Kd
T2 construct: T7 phage fusion (kinase-tagged phage) or DNA tag for qPCR detection
T2 sequence (O75116 whole entry, the tested form may be a part): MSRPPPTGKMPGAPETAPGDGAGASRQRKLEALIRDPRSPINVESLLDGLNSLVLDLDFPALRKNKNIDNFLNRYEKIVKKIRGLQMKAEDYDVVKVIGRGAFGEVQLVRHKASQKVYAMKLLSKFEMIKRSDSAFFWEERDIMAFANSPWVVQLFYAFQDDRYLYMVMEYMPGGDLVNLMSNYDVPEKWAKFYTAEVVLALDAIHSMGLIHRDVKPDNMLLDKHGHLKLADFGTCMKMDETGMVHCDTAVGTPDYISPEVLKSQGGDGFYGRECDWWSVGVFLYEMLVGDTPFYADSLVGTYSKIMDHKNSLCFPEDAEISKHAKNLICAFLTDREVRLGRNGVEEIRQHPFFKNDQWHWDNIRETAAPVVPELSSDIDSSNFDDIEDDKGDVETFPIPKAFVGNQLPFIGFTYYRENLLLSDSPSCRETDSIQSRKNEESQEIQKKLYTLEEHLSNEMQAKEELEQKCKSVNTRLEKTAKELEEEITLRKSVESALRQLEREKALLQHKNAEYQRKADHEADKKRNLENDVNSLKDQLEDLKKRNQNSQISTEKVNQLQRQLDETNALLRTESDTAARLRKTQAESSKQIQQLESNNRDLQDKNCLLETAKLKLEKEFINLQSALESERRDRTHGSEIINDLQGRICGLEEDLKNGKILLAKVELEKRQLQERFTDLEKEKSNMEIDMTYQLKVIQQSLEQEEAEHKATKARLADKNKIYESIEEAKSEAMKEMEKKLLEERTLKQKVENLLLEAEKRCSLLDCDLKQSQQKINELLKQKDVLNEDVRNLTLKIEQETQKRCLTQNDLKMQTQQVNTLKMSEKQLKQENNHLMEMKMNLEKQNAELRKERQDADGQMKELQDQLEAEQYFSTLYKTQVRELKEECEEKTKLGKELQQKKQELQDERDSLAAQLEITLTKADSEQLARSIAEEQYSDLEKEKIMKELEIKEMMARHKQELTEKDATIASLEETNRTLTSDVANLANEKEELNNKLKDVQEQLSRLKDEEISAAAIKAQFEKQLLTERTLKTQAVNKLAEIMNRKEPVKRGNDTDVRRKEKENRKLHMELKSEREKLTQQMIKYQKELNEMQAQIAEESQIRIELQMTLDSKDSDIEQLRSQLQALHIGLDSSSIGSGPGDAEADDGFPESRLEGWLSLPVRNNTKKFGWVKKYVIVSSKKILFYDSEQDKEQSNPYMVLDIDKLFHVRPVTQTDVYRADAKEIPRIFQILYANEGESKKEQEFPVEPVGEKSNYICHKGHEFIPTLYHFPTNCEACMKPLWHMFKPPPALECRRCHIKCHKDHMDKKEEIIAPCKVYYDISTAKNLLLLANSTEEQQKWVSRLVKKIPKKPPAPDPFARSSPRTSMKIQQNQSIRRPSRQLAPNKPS
Procedure: as §1

T1 sequence (Q13464 whole entry, the tested form may be a part): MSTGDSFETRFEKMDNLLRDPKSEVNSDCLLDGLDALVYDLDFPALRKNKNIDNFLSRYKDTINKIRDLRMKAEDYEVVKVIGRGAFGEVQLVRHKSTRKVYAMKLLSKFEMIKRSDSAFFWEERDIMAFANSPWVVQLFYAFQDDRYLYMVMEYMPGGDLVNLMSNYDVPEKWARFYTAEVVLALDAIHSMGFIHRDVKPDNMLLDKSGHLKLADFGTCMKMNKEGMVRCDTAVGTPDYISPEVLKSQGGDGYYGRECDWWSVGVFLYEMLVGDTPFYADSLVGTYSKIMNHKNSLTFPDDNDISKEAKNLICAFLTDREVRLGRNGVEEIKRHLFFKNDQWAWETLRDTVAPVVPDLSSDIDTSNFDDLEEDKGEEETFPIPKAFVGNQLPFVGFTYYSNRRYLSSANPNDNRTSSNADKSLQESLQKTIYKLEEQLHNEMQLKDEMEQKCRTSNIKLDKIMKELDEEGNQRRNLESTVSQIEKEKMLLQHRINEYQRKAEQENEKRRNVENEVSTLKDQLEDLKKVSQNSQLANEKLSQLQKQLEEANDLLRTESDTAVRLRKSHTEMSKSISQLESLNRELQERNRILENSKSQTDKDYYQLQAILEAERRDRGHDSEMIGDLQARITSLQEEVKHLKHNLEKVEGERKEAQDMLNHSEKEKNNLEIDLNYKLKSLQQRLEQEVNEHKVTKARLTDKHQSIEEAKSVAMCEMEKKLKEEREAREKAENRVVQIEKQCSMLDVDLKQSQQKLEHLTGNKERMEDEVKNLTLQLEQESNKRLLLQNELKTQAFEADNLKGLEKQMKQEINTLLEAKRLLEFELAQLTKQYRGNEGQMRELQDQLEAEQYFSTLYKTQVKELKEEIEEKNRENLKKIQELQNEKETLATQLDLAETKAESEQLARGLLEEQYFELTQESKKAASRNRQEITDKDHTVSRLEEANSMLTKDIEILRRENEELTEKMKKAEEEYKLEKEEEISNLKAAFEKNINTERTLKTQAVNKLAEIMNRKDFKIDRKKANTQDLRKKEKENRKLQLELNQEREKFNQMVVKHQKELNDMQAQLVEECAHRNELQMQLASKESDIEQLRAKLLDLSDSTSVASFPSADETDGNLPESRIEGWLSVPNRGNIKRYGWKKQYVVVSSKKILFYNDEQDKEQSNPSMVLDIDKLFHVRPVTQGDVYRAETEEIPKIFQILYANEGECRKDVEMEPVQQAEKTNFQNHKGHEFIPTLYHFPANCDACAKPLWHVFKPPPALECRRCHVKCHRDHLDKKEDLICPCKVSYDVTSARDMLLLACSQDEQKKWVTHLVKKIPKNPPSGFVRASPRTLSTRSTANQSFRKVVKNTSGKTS

Row | SMILES | Kd (ROCK1) | Kd (ROCK2) | ROCK2 Selectivity (ROCK2)
1 | Fc1cc(F)c(F)c(CNc2nccc(-c3nccc(C#Cc4ccc5[nH]ncc5c4)n3)n2)c1 [Ex. 37, 4-((1H-Indazol-5-yl)ethynyl)-N-(2,3,5-trifluorobenzyl)-[2,4′-bipyrimidin]-2′-amine] | 1 to 9.9 µM | 0.01 to 0.099 µM | *** (151 to 500-fold selectivity for ROCK2)
2 | OC[C@H]1CC[C@@H](CNc2nccc(-c3nccc(C#Cc4ccc5[nH]ncc5c4)n3)n2)O1 [Ex. 51, ((2R,5S)-5-(((4-((1H-Indazol-5-yl)ethynyl)-[2,4′-bipyrimidin]-2′-yl)amino)methyl)tetrahydrofuran-2-yl)methanol] | 0.1 to 0.99 µM | < 0.01 µM | *** (151 to 500-fold selectivity for ROCK2)
3 | C(#Cc1ccnc(-c2ccnc(N[C@@H]3CCOC3)n2)n1)c1ccc2[nH]ncc2c1 [Ex. 59, (R)-4-((1H-Indazol-5-yl)ethynyl)-N-(tetrahydrofuran-3-yl)-[2,4′-bipyrimidin]-2′-amine] | 1 to 9.9 µM | < 0.01 µM | *** (151 to 500-fold selectivity for ROCK2)
4 | Fc1ccc(CNc2nccc(-c3nccc(C#Cc4ccc5[nH]nc(F)c5c4)n3)n2)nc1 [Ex. 45, 4-((3-Fluoro-1H-indazol-5-yl)ethynyl)-N-((5-fluoropyridin-2-yl)methyl)-[2,4′-bipyrimidin]-2′-amine] | 10 to 100 µM | 0.01 to 0.099 µM | **** (>500-fold selectivity for ROCK2)
5 | COc1ccnc(CNc2nccc(-c3nccc(C#Cc4ccc5[nH]ncc5c4)n3)n2)c1 [Ex. 11, 4-((1H-Indazol-5-yl)ethynyl)-N-((4-methoxypyridin-2-yl)methyl)-[2,4′-bipyrimidin]-2′-amine] | 0.1 to 0.99 µM | 0.01 to 0.099 µM | ** (50 to 150-fold selectivity for ROCK2)
6 | CC(Nc1nccc(-c2nccc(C#Cc3ccc4[nH]ncc4c3)n2)n1)C1CCCO1 (stereo not drawn) [Ex. 67, 4-((1H-Indazol-5-yl)ethynyl)-N-(1-(tetrahydrofuran-2-yl)ethyl)-[2,4′-bipyrimidin]-2′-amine] | 1 to 9.9 µM | 0.01 to 0.099 µM | * (<50-fold selectivity for ROCK2)
7 | COC(C)(C)CNc1nccc(-c2nccc(C#Cc3ccc4[nH]ncc4c3)n2)n1 [Ex. 81, 4-((1H-Indazol-5-yl)ethynyl)-N-(2-methoxy-2-methylpropyl)-[2,4′-bipyrimidin]-2′-amine] | 1 to 9.9 µM | 0.01 to 0.099 µM | ** (50 to 150-fold selectivity for ROCK2)
8 | Fc1nccc(Cl)c1CNc1nccc(-c2nccc(C#Cc3ccc4[nH]ncc4c3)n2)n1 [Ex. 64, 4-((1H-Indazol-5-yl)ethynyl)-N-((4-chloro-2-fluoropyridin-3-yl)methyl)-[2,4′-bipyrimidin]-2′-amine] | 0.1 to 0.99 µM | 0.01 to 0.099 µM | * (<50-fold selectivity for ROCK2)
9 | O[C@H]1CC[C@@H](Nc2nccc(-c3nccc(C#Cc4ccc5[nH]ncc5c4)n3)n2)C1 [Ex. 82, (1S,3R)-3-((4-((1H-Indazol-5-yl)ethynyl)-[2,4′-bipyrimidin]-2′-yl)amino)cyclopentanol] | 0.1 to 0.99 µM | < 0.01 µM | **** (>500-fold selectivity for ROCK2)
10 | C(#Cc1ccnc(-c2ccnc(NCc3ccccn3)n2)n1)c1ccc2[nH]ncc2c1 [Ex. 22, 4-((1H-Indazol-5-yl)ethynyl)-N-(pyridin-2-ylmethyl)-[2,4′-bipyrimidin]-2′-amine] | 1 to 9.9 µM | 0.01 to 0.099 µM | ** (50 to 150-fold selectivity for ROCK2)
11 | COC(=O)[C@H]1CC[C@@H](Nc2nccc(-c3nccc(C#Cc4ccc5[nH]ncc5c4)n3)n2)CC1 [Ex. 91, (1s,4s)-Methyl 4-((4-((1H-indazol-5-yl)ethynyl)-[2,4′-bipyrimidin]-2′-yl)amino)cyclohexanecarboxylate] | 0.1 to 0.99 µM | < 0.01 µM | ** (50 to 150-fold selectivity for ROCK2)
12 | [2H]C([2H])(Nc1nccc(-c2nccc(C#Cc3ccc4[nH]ncc4c3)n2)n1)c1ccccn1 [Ex. 66, 4-((1H-Indazol-5-yl)ethynyl)-N-(pyridin-2-ylmethyl-d2)-[2,4′-bipyrimidin]-2′-amine] | 0.1 to 0.99 µM | < 0.01 µM | ** (50 to 150-fold selectivity for ROCK2)
13 | Fc1cnc(CNc2nccc(-c3nccc(C#Cc4ccc5[nH]ncc5c4)n3)n2)c(F)c1 [Ex. 38, 4-((1H-Indazol-5-yl)ethynyl)-N-((3,5-difluoropyridin-2-yl)methyl)-[2,4′-bipyrimidin]-2′-amine] | 0.1 to 0.99 µM | < 0.01 µM | ** (50 to 150-fold selectivity for ROCK2)
14 | Fc1ccc(CNc2nccc(-c3nccc(C#Cc4ccc5[nH]ncc5c4)n3)n2)cc1 [Ex. 8, 4-((1H-Indazol-5-yl)ethynyl)-N-(4-fluorobenzyl)-[2,4′-bipyrimidin]-2′-amine] | 1 to 9.9 µM | 0.01 to 0.099 µM | *** (151 to 500-fold selectivity for ROCK2)
15 | O=S1(=O)CC[C@@H](Nc2nccc(-c3nccc(C#Cc4ccc5[nH]ncc5c4)n3)n2)C1 [Ex. 88, (R)-3-((4-((1H-Indazol-5-yl)ethynyl)-[2,4′-bipyrimidin]-2′-yl)amino)tetrahydrothiophene 1,1-dioxide] | 0.1 to 0.99 µM | 0.01 to 0.099 µM | * (<50-fold selectivity for ROCK2)
16 | Fc1cc(C#Cc2ccnc(-c3ccnc(NCC4CCCO4)n3)n2)cc2cn[nH]c12 (stereo not drawn) [Ex. 49, 4-((7-Fluoro-1H-indazol-5-yl)ethynyl)-N-((tetrahydrofuran-2-yl)methyl)-[2,4′-bipyrimidin]-2′-amine] | 1 to 9.9 µM | < 0.01 µM | *** (151 to 500-fold selectivity for ROCK2)
17 | Fc1ccc(CNc2nccc(-c3nccc(C#Cc4ccc5[nH]ncc5c4)n3)n2)cn1 [Ex. 47, 4-((1H-Indazol-5-yl)ethynyl)-N-((6-fluoropyridin-3-yl)methyl)-[2,4′-bipyrimidin]-2′-amine] | 1 to 9.9 µM | 0.01 to 0.099 µM | ** (50 to 150-fold selectivity for ROCK2)
18 | CNC(=O)CNc1nccc(-c2nccc(C#Cc3ccc4[nH]ncc4c3)n2)n1 [Ex. 55, 2-((4-((1H-Indazol-5-yl)ethynyl)-[2,4′-bipyrimidin]-2′-yl)amino)-N-methylacetamide] | 1 to 9.9 µM | 0.01 to 0.099 µM | ** (50 to 150-fold selectivity for ROCK2)
19 | O[C@H]1CC[C@H](Nc2nccc(-c3nccc(C#Cc4ccc5[nH]ncc5c4)n3)n2)C1 [Ex. 90, (1S,3S)-3-((4-((1H-Indazol-5-yl)ethynyl)-[2,4′-bipyrimidin]-2′-yl)amino)cyclopentanol] | 1 to 9.9 µM | < 0.01 µM | *** (151 to 500-fold selectivity for ROCK2)
20 | FC1(F)Oc2ccc(CNc3nccc(-c4nccc(C#Cc5ccc6[nH]ncc6c5)n4)n3)cc2O1 [Ex. 13, 4-((1H-Indazol-5-yl)ethynyl)-N-((2,2-difluorobenzo[d][1,3]dioxol-5-yl)methyl)-[2,4′-bipyrimidin]-2′-amine] | 10 to 100 µM | 0.1 to 0.99 µM | ** (50 to 150-fold selectivity for ROCK2)
21 | O[C@@H]1CC[C@H](Nc2nccc(-c3nccc(C#Cc4ccc5[nH]ncc5c4)n3)n2)C1 [Ex. 74, (1R,3S)-3-((4-((1H-indazol-5-yl)ethynyl)-[2,4′-bipyrimidin]-2′-yl)amino)cyclopentanol] | 0.1 to 0.99 µM | < 0.01 µM | **** (>500-fold selectivity for ROCK2)
22 | O[C@H]1CC[C@H](Nc2nccc(-c3nccc(C#Cc4ccc5[nH]ncc5c4)n3)n2)CC1 [Ex. 63, (1r,4r)-4-((4-((1H-Indazol-5-yl)ethynyl)-[2,4′-bipyrimidin]-2′-yl)amino)cyclohexanol] | 1 to 9.9 µM | < 0.01 µM | *** (151 to 500-fold selectivity for ROCK2)
23 | C(#Cc1ccnc(-c2ccnc(NCc3cc4ccccc4cn3)n2)n1)c1ccc2[nH]ncc2c1 [Ex. 25, 4-((1H-Indazol-5-yl)ethynyl)-N-(isoquinolin-3-ylmethyl)-[2,4′-bipyrimidin]-2′-amine] | 0.1 to 0.99 µM | 0.01 to 0.099 µM | * (<50-fold selectivity for ROCK2)
24 | Fc1ccccc1CNc1nccc(-c2nccc(C#Cc3ccc4[nH]ncc4c3)n2)n1 [Ex. 15, 4-((1H-Indazol-5-yl)ethynyl)-N-(2-fluorobenzyl)-[2,4′-bipyrimidin]-2′-amine] | 10 to 100 µM | 0.01 to 0.099 µM | *** (151 to 500-fold selectivity for ROCK2)
25 | C(#Cc1ccnc(-c2ccnc(NC[C@H]3CCOC3)n2)n1)c1ccc2[nH]ncc2c1 [Ex. 69, (R)-4-((1H-Indazol-5-yl)ethynyl)-N-((tetrahydrofuran-3-yl)methyl)-[2,4′-bipyrimidin]-2′-amine] | 1 to 9.9 µM | < 0.01 µM | *** (151 to 500-fold selectivity for ROCK2)
26 | C(#Cc1ccnc(-c2ccnc(NCc3ccco3)n2)n1)c1ccc2[nH]ncc2c1 [Ex. 40, 4-((1H-Indazol-5-yl)ethynyl)-N-(furan-2-ylmethyl)-[2,4′-bipyrimidin]-2′-amine] | 0.1 to 0.99 µM | 0.01 to 0.099 µM | * (<50-fold selectivity for ROCK2)
